Source: the CheMixHub ionic liquid set

Assay: xn = mol fraction of the nth substance listed
Settings: 101 kPa; for electrical conductivity: frequency 3 MHz

Cn1cc[n+](CCCN)c1.F[B-](F)(F)F + CC#N
Settings	electrical conductivity [S/m]	viscosity [mPa·s]
288.15 K, x1 = 0.1001	1.69	18.13
288.15 K, x1 = 0.2005	1.25	36
288.15 K, x1 = 0.3	0.915	55.18
288.15 K, x1 = 0.399	0.614	75.79
288.15 K, x1 = 0.4996	0.416	98.1
288.15 K, x1 = 0.598	0.281	121.5
288.15 K, x1 = 0.6975	0.168	147
288.15 K, x1 = 0.7983	0.088	174.5
288.15 K, x1 = 0.8987	0.044	202.6
288.15 K, x1 = 1	0.011	231.2
293.15 K, x1 = 0.1001	1.94	13.81
293.15 K, x1 = 0.2005	1.49	27.35
293.15 K, x1 = 0.3	1.103	42.52
293.15 K, x1 = 0.399	0.749	58.84
293.15 K, x1 = 0.4996	0.519	76.44
293.15 K, x1 = 0.598	0.35	95.92
293.15 K, x1 = 0.6975	0.211	116.8
293.15 K, x1 = 0.7983	0.117	139.6
293.15 K, x1 = 0.8987	0.062	161.9
293.15 K, x1 = 1	0.018	185.4
298.15 K, x1 = 0.1001	2.243	10.64
298.15 K, x1 = 0.2005	1.742	21.28
298.15 K, x1 = 0.3	1.309	33.13
298.15 K, x1 = 0.399	0.906	46.19
298.15 K, x1 = 0.4996	0.625	60.38
298.15 K, x1 = 0.598	0.427	76.12
298.15 K, x1 = 0.6975	0.267	93.68
298.15 K, x1 = 0.7983	0.153	112
298.15 K, x1 = 0.8987	0.085	130.2
298.15 K, x1 = 1	0.026	149.6
303.15 K, x1 = 0.1001	2.56	8.386
303.15 K, x1 = 0.2005	2.036	16.73
303.15 K, x1 = 0.3	1.535	26.24
303.15 K, x1 = 0.399	1.08	36.56
303.15 K, x1 = 0.4996	0.746	48.34
303.15 K, x1 = 0.598	0.515	61.21
303.15 K, x1 = 0.6975	0.329	75.42
303.15 K, x1 = 0.7983	0.195	90.05
303.15 K, x1 = 0.8987	0.112	104.8
303.15 K, x1 = 1	0.04	121.1
308.15 K, x1 = 0.1001	2.89	6.804
308.15 K, x1 = 0.2005	2.343	13.48
308.15 K, x1 = 0.3	1.79	21.1
308.15 K, x1 = 0.399	1.27	29.46
308.15 K, x1 = 0.4996	0.874	38.98
308.15 K, x1 = 0.598	0.611	49.81
308.15 K, x1 = 0.6975	0.402	61.47
308.15 K, x1 = 0.7983	0.243	74.04
308.15 K, x1 = 0.8987	0.144	86.51
308.15 K, x1 = 1	0.055	100.2
313.15 K, x1 = 0.1001	3.24	5.588
313.15 K, x1 = 0.2005	2.68	11.04
313.15 K, x1 = 0.3	2.06	17.16
313.15 K, x1 = 0.399	1.48	24.04
313.15 K, x1 = 0.4996	1.021	32.08
313.15 K, x1 = 0.598	0.721	40.8
313.15 K, x1 = 0.6975	0.487	50.47
313.15 K, x1 = 0.7983	0.301	61.67
313.15 K, x1 = 0.8987	0.182	71.62
313.15 K, x1 = 1	0.072	83.06
318.15 K, x1 = 0.1001	3.622	4.761
318.15 K, x1 = 0.2005	3.05	9.062
318.15 K, x1 = 0.3	2.36	14.08
318.15 K, x1 = 0.399	1.7	19.9
318.15 K, x1 = 0.4996	1.17	26.59
318.15 K, x1 = 0.598	0.844	33.85
318.15 K, x1 = 0.6975	0.58	41.94
318.15 K, x1 = 0.7983	0.364	51.42
318.15 K, x1 = 0.8987	0.225	59.82
318.15 K, x1 = 1	0.094	69.26
323.15 K, x1 = 0.1001	4.04	4.016
323.15 K, x1 = 0.2005	3.46	7.65
323.15 K, x1 = 0.3	2.68	11.81
323.15 K, x1 = 0.399	1.938	16.54
323.15 K, x1 = 0.4996	1.344	22.05
323.15 K, x1 = 0.598	0.982	28.29
323.15 K, x1 = 0.6975	0.692	35.74
323.15 K, x1 = 0.7983	0.437	43.45
323.15 K, x1 = 0.8987	0.276	50.53
323.15 K, x1 = 1	0.124	58.45
